Assays:
[1] = tested on: transgenic maize lines with the ALAS gene; assay: Tolerance of transgenic maize lines with the ALAS (hemA) gene to the GSAAT inhibitor; type: in vivo; settings: 100 μM; compared with untreated controls on medium without inhibitor
Protocol: To produce transgenic maize plants which contain an expression cassette for Rhodobacter sphaeroides hemA gene, a transformation was carried out as described in EP-A 0 469 273, with the difference that pALAS3f was employed as the DNA to be transferred. 41 independent maize transformants were obtained. Amongst these lines termed M23T1, M25T1 to M25T13 and M27T1 to M27T27, plants were regenerated as described. The presence of the complete hemA gene was detected in all transgenic plants by means of PCR using the oligodeoxynucleotides ALAS1 and ALAS2 (see Example 1) as PCR primers.
(§1) The tolerance of transgenic lines to 3-amino-2,3-dihydrobenzoic acid is determined in comparison with the nontransgenic original line. To this end, five regenerate plants per line whose size and root system visually corresponds to the above-described seedlings after six days germination are transferred to media without 3-amino-2,3-dihydrobenzoic acid (one plant) and with 100 μM 3-amino-2,3-dihydrobenzoic acid (four plants) and grown on.

untransformed maize line = assay: Tolerance threshold of the untransformed maize line to the GSAAT inhibitor; type: in vivo; settings: for wet weight of nontransgenic plants: six days after medium change, means of 10 plants without root and seed kernel remains
Protocol: First, the tolerance threshold of the untransformed maize line over the GSAAT inhibitor 3-amino-2,3-dihydrobenzoic acid was determined. To this end, the maize seeds were surface-sterilized by washing them under sterile conditions first for 1 minute in 70% ethanol, then for 20 minutes in 5% sodium hypochlorite, 0.1% Tween 20 and subsequently six times briefly in sterile water. The seeds were then placed under sterile conditions on Murashige & Skoog medium (micro- and macronutrients, Sigma GmbH #M5524) containing 90 g/l sucrose and 8 g/l agar and grown for six days at room temperature under daylight fluorescent tubes in a 12-hour-light/12-hour-dark photoperiod until the second leaf emerged. At this stage, the plantlets were transferred to fresh medium with various concentrations of 3-amino-2,3-dihydrobenzoic acid.
After the plants had been grown for a further 10 days, the effect of the inhibitor was recorded. […] Six days after the medium was changed, the following wet weights were found for the nontransgenic plants (in each case means of 10 individual plants without root and remains of the seed kernel):
as §1

GSAAT = target: T1, GSAAT (Hordeum vulgare, UniProt P18492); settings: background, Beale (1990); cited from earlier work
T1 sequence (P18492 35-469): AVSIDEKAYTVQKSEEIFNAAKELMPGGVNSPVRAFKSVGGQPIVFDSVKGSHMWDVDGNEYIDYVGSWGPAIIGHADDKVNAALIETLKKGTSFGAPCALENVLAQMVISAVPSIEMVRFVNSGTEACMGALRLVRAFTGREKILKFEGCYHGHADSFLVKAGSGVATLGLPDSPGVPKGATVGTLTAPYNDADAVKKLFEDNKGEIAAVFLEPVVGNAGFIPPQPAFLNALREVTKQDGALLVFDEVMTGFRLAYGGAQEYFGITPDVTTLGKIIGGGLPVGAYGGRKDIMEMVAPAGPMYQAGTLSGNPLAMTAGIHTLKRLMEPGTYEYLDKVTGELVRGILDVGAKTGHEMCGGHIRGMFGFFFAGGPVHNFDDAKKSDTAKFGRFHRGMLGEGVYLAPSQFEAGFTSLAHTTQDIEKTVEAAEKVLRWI

Lemna gibba = assay: Lemna test; type: in vivo; settings: 20 μM in culture solution
Protocol: The phytotoxic action of GSAAT inhibitors was also determined in vivo by treating Lemna cultures.
To this end, Lemna gibba was cultured in sterile culture solution (0.4 g/l KNO3, 0.8 g/l CaCl2*2H2O, 0.366 g/l MgSO4*7H2O, 0.2 g/l KH2PO4, 2 ml/l solution I (2.23 g/l MnSO44H2O, 83 mg/l Kl, 2.5 mg/l CoCl2*6H2O, 0.86 g/l ZnSO4*7H2O, 2.5 mg/l CuSO4*5H2O, 0.62 g/l H3BO3, 25 mg/l Na2MoO4*2H2O) and 2 ml/l solution II(14.92 g/l Na-EDTA, 10.92 g/l FeSO4*7H2O)). In each case 3 plants were placed under sterile conditions into the a 100 ml Erlenmeyer flask which was filled with 50 ml culture solution containing the GSAAT inhibitor in a concentration of 20 μM. The culture flasks were illuminated at 25° C. with two 36 W daylight fluorescence tubes at a distance of 70 cm (24-hour light photoperiod). Growth and phenotype of the Lemna plants were observed over 7 days and compared with the growth and the phenotype of Lemna plants which had been grown in culture solution without inhibitor under otherwise identical conditions. It was characteristic of the phytotoxic effect of a GSAAT inhibitor that the newly-formed tissues were chlorotic. When light intensities were high, it was also possible for the plant tissue to become necrotic. Compounds with a rapid action frequently led to complete destruction of the plants after only one day, while the more slowly acting compounds first led to growth depression.

[2] = target: T2, recombinant Hordeum vulgare GSAAT (Hordeum vulgare, UniProt P18492); assay: GSAAT activity test (photometric detection of derivatized 5-aminolevulinic acid); type: biochemical; settings: pH 6.5, 20° C., read-out: concentration leading to a 50% reduction in GSAAT activity
T2 construct: The mature Hordeum vulgare GSAAT was produced recombinantly in Escherichia coli; made in house; host or cells: Escherichia coli TG1, expression plasmid pATE19 co-transformed with pGroESL
T2 sequence (P18492 35-469): T1 sequence (P18492 35-469)
Protocol: GSAAT activity was detected by a photometric detection of the derivatized reaction product 5-aminolevulinic acid. The activity test was carried out in a 96-well flat-bottom microtiter plate (F form) made of polystyrene.
It was possible to carry out the desired number of individual measurements in parallel in the wells of the microtiter plate. The following information relates in each case to one well of the microtiter plate (MTP).
At a temperature of 20° C., 100 μl of enzyme solution (25 pkat/ml recombinant Hordeum vulgare GSAAT, 250 mM Bis Tris/HCl pH 6.5) and 10 μl of 25% (v/v) dimethyl sulfoxide in water were introduced into the well. […]
Immediately after the enzymatic reaction had started, the mixture was incubated for 30 minutes at 20° C. […] After the incubation had ended, the absorption of the solution was determined immediately at a wavelength of 540 nm with the aid of a microtiter plate photometer.
To determine the enzymatically formed quantity of 5-aminolevulinic acid, the blank value (see below) was first deducted from the absorption of the mixture to be analyzed. The difference between measured value and blank value was used for calculating, with the aid of a calibration series, the concentration of 5-aminolevulinic acid in the reaction mixture at the time immediately prior to addition of the ethyl acetoacetate. […]

[3] = 100 μM, after a further 10 days

Row | IC50 [2] [µM] | SMILES | phenotype of regenerated plants of most transgenic lines [1] | wet weight of nontransgenic plants (untransformed maize line; 1 μM in medium) [g] | wet weight of nontransgenic plants (untransformed maize line; 5 μM in medium) [g] | wet weight of nontransgenic plants (untransformed maize line; 10 μM in medium) [g] | wet weight of nontransgenic plants (untransformed maize line; 100 μM in medium) [g] | biomass production (untransformed maize line; [3]) | phenotype of newly-formed tissue (untransformed maize line; [3]) | phenotype of regenerated plants of the nontransgenic line (untransformed maize line; 100 μM, compared with the untreated control) | biomass production (untransformed maize line; concentration under 5 μM, after a further 10 days) | effect on GSAAT (GSAAT) | plants that had died (Lemna gibba; after 72 hours) | phytotoxic effect on Lemna plants (Lemna gibba; within 48 hours)
1 | – | NC1C=CC=C(C(=O)O)C1 (stereo not shown) [3-amino-2,3-dihydrobenzoic acid] | none of the regenerated plants in the presence of 100 μM 3-amino-2,3-dihydrobenzoic acid shows chloroses or reduced growth | 4.15 | 3.82 | 3.12 | 1.53 | markedly reduced | marked chlorosis | marked chlorosis and reduced biomass production | unaltered within the normal variations | inhibited | – | –
2 | 6 | NNCCCS(=O)(=O)O [compound A, hydrazinopropylsulfonic acid] | – | – | – | – | – | – | – | – | – | – | over 60% | chloroses and growth depression

From patent publication US6603062B1, “Method for producing transgenic plants with modified 5-aminolevulinic acid biosynthesis, method for identifying 5-aminolevulinic acid synthesis effectors” (Aventis CropScience GmbH, priority 1997, dated 2003)
